Assay results published in patent US11673898B2, “Substituted inhibitors of menin-MLL and methods of use” (Kura Oncology, Inc., priority 2016, dated 2023).

Tests used:
[1] = test system: MLL-AF9 BMC; assay: Cell proliferation assay (CellTiter-Glo); format: cell-based
Description: Example 9: Cell proliferation assay. The ability of a compound of the present disclosure to inhibit the growth of cells, such as human leukemia cell, acute myeloid leukemia cell, cells with an MLL fusion, control cells without an MLL fusion, VCaP, LNCaP, 22RV1, DU145, LNCaP-AR, MV4; 11, KOPN-8, ML-2, MOLM-13, RS4; 11, SEM, bone marrow cells (BMCs), MLL-AF9, MLL-AF4, MLL-ENL, MLL-CBP, MLL-GAS7, MLL-AF1p, MLL-AF6, HM-2, E2A-HLF, REH, U937, K562, KG-1, HL-60 and NB4 cells, is tested using a cell viability assay, such as the Promega CellTiter-Glo® Luminescent Cell Viability Assay (Promega Technical Bulletin, 2015, “CellTiter-Glo® Luminescent Cell Viability Assay”: 1-15, herein incorporated by reference in its entirety). Cells are plated at relevant concentrations, for example about 1×10^5-2×10^5 cells per well in a 96-well plate. A compound of the present disclosure is added at a concentration up to about 2 μM with eight, 2-fold serial dilutions for each compound. Cells are incubated at 37° C. for a period of time, for example, 72 hours, then cells in the control wells are counted. Media is changed to restore viable cell numbers to the original concentration, and compounds are re-supplied. Proliferation is measured about 72 hours later using Promega CellTiter-Glo® reagents, as per kit instructions.

[2] = target: T1, Menin MLL 4-43 (Homo sapiens, UniProt O00255); assay: Fluorescence polarization (FP) competition assay of the menin-MLL interaction; format: binding; conditions: fluorescence polarization assay; read-out: Menin MLL 4-43 IC50
T1 sequence (O00255 1-610): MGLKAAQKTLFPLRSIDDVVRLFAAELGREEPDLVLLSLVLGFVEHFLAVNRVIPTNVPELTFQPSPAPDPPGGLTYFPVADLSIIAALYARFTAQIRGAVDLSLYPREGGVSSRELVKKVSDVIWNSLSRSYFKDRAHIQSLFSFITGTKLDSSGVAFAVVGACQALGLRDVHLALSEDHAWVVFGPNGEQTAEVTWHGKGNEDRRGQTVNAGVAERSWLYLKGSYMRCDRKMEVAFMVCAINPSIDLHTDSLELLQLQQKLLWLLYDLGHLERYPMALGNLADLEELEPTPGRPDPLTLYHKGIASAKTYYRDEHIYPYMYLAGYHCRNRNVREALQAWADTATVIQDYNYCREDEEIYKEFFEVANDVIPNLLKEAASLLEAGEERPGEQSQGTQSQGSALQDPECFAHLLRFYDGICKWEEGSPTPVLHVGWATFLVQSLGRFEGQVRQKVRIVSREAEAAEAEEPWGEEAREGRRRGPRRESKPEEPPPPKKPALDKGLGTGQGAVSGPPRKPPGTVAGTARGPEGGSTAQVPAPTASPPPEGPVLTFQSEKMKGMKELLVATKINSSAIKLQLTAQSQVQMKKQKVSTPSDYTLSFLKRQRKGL

Row | IC50 [2] [nM] | SMILES | GI50 [1] [nM]
1 | > 1000 | Cc1c(CN2CCC(Nc3ncnc4sc(CC(F)(F)F)cc34)CC2)ccc2c1cc(C#N)n2C[C@@H](C)N1CCN(S(C)(=O)=O)CC1 [Compound 9] | 250 to 1000
2 | < 50 | Cc1c(CN2CCC(Nc3ncnc4sc(CC(F)(F)F)cc34)CC2)ccc2c1cc(C#N)n2C[C@H](C)N1CCN(S(C)(=O)=O)CC1 [Compound 10] | 10 to 50
3 | < 50 | Cc1c(CN2CCC(Nc3ncnc4sc(CC(F)(F)F)cc34)CC2)ccc2c1cc(C#N)n2CC(C)N1CCN(S(C)(=O)=O)C(C(N)=O)C1 (stereo not shown) [Compound 80] | 10 to 50
4 | < 50 | CNS(=O)(=O)N1CCN([C@@H](C)Cn2c(C#N)cc3c(C)c(CN4CCC(Nc5nc(N)nc6sc(CC(F)(F)F)cc56)CC4)ccc32)CC1 [Compound 132] | < 10
5 | < 50 | Cc1c(CN2CCC(Nc3nc(N)nc4sc(CC(F)(F)F)cc34)CC2)ccc2c1cc(C#N)n2C[C@H](C)N1CCN(S(C)(=O)=O)CC1 [Compound 135] | < 10
6 | < 50 | Cc1nc(NC2CCN(Cc3ccc4c(cc(C#N)n4C[C@H](C)N4CCN(S(C)(=O)=O)CC4)c3C)CC2)c2cc(CC(F)(F)F)sc2n1 [Compound 138] | 10 to 50
7 | < 50 | CNS(=O)(=O)N1CCN([C@@H](C)Cn2c(C#N)cc3c(C)c(CN4CCC(Nc5nc(C)nc6sc(CC(F)(F)F)cc56)CC4)ccc32)CC1 [Compound 139] | 10 to 50
8 | – | CNc1nc(NC2CCN(Cc3ccc4c(cc(C#N)n4C[C@H](C)N4CCN(S(C)(=O)=O)CC4)c3C)CC2)c2cc(CC(F)(F)F)sc2n1 [Compound 151] | < 10
9 | < 50 | Cc1c(CN2CCC(Nc3ncnc4sc(CC(F)(F)F)cc34)CC2)ccc2c1cc(C#N)n2C[C@H](C)N1CCN(S(C)(=O)=O)[C@H](C(N)=O)C1 [Compound 163] | < 10
10 | 50 to 250 | CCc1nc(NC2CCN(Cc3ccc4c(cc(C#N)n4C[C@H](C)N4CCN(S(C)(=O)=O)CC4)c3C)CC2)c2cc(CC(F)(F)F)sc2n1 [Compound 171] | 10 to 50
11 | < 50 | C[C@@H](Cn1c(C#N)cc2cc(CN3CCC(Nc4nc(N)nc5sc(CC(F)(F)F)cc45)CC3)c(O)cc21)N1CCN(S(C)(=O)=O)CC1 [Compound 172] | < 10
12 | 50 to 250 | CCNc1nc(NC2CCN(Cc3ccc4c(cc(C#N)n4C[C@H](C)N4CCN(S(C)(=O)=O)CC4)c3C)CC2)c2cc(CC(F)(F)F)sc2n1 [Compound 174] | 10 to 50
13 | < 50 | Cc1c(CN2CCC(Nc3nc(N)nc4sc(CC(F)(F)F)cc34)CC2)ccc2c1cc(C#N)n2C[C@H](C)N1CCN(CC(N)=O)CC1 [Compound 175] | 10 to 50
14 | < 50 | CNC(=O)CN1CCN([C@@H](C)Cn2c(C#N)cc3c(C)c(CN4CCC(Nc5nc(N)nc6sc(CC(F)(F)F)cc56)CC4)ccc32)CC1 [Compound 176] | 10 to 50
15 | < 50 | CNS(=O)(=O)N1CCN([C@@H](C)Cn2c(C#N)cc3cc(CN4CCC(Nc5nc(N)nc6sc(CC(F)(F)F)cc56)CC4)c(O)cc32)CC1 [Compound 177] | < 10
16 | < 50 | Cc1c(CN2CCC(Nc3nc(N)nc4sc(CC(F)(F)F)cc34)CC2)ccc2c1cc(C#N)n2C[C@H](C)N1CCN(CC(=O)N(C)C)CC1 [Compound 181] | 10 to 50
17 | < 50 | COc1nc(NC2CCN(Cc3ccc4c(cc(C#N)n4C[C@H](C)N4CCN(S(C)(=O)=O)CC4)c3C)CC2)c2cc(CC(F)(F)F)sc2n1 [Compound 183] | < 10
18 | 50 to 250 | CNc1nc(NC2CCN(Cc3ccc4c(cc(C#N)n4C[C@H](C)N4CCC(C)(C#N)CC4)c3C)CC2)c2cc(CC(F)(F)F)sc2n1 [Compound 199] | < 10
19 | < 50 | CNc1nc(NC2CCN(Cc3ccc4c(cc(C#N)n4C[C@H](C)N4CCS(=O)(=O)CC4)c3C)CC2)c2cc(CC(F)(F)F)sc2n1 [Compound 203] | < 10
20 | < 50 | CNS(=O)(=O)N1CCN([C@@H](C)Cn2c(C#N)cc3c(C)c(CN4CCC(Nc5nc(OC)nc6sc(CC(F)(F)F)cc56)CC4)ccc32)CC1 [Compound 205] | < 10
21 | < 50 | CNc1nc(NC2CCN(Cc3ccc4c(cc(C#N)n4C[C@H](C)N4CCC(NS(C)(=O)=O)CC4)c3C)CC2)c2cc(CC(F)(F)F)sc2n1 [Compound 249] | –

Row | IC50 [2] [nM] | SMILES | GI50 [1] [nM]
22 | < 50 | CNc1nc(NC2CCN(Cc3ccc4c(cc(C#N)n4C[C@H](C)N4CCN(S(=O)(=O)CC5CC5)CC4)c3C)CC2)c2cc(CC(F)(F)F)sc2n1 [Compound 250] | –
23 | < 50 | CNc1nc(NC2CCN(Cc3ccc4c(cc(C#N)n4C[C@H](C)N4CCN(S(=O)(=O)C(C)C)CC4)c3C)CC2)c2cc(CC(F)(F)F)sc2n1 [Compound 251] | –
24 | > 1000 | CNc1nc(NC2CCN(Cc3ccc4c(cc(C#N)n4C[C@H](C)N4CCN(S(C)(=O)=O)CC4)c3C)CC2)c2c(C)c(CC(F)(F)F)sc2n1 [Compound 252] | –
25 | 50 to 250 | Cc1nc(NC2CCN(Cc3ccc4c(cc(C#N)n4C[C@H](C)N4CCC(S(C)(=O)=O)CC4)c3C)CC2)c2cc(C(O)C(F)(F)F)sc2n1 (stereo partly shown) [Compound 280] | –
26 | < 50 | CNc1nc(NC2CCN(Cc3ccc4c(cc(C#N)n4C[C@H](C)N4C5CCC4CN(S(C)(=O)=O)C5)c3C)CC2)c2cc(CC(F)(F)F)sc2n1 [Compound 282] | –
27 | < 50 | Cc1nc(NC2CCN(Cc3ccc4c(cc(C#N)n4C[C@H](C)N4C5CCC4CN(S(C)(=O)=O)C5)c3C)CC2)c2cc(CC(F)(F)F)sc2n1 [Compound 283] | –
28 | 20 to 1000 | Cc1c(CN2CCC(Nc3ncnc4sc(CC(F)(F)F)cc34)CC2)ccc2c1cc(C#N)n2CCN1CCC(NS(C)(=O)=O)CC1 [Compound 1000] | –
29 | 20 to 1000 | CC(=O)NC1CCN(CCn2c(C#N)cc3c(C)c(CN4CCC(Nc5ncnc6sc(CC(F)(F)F)cc56)CC4)ccc32)CC1 [Compound 1001] | –
30 | 50 to 250 | Cc1c(CN2CCC(Nc3ncnc4sc(CC(F)(F)F)cc34)CC2)ccc2c1cc(C#N)n2CCc1ccc(NC(=O)C2(C#N)CC2)cc1 [Compound 1002] | –
31 | 50 to 250 | Cc1c(CN2CCC(Nc3ncnc4sc(CC(F)(F)F)cc34)CC2)ccc2c1cc(C#N)n2CCc1ccc(NC(=O)CC#N)cc1 [Compound 1003] | –
32 | > 1000 | C=CC(=O)N(C)c1ccc(CCn2c(C#N)cc3c(C)c(CN4CCC(Nc5ncnc6sc(CC(F)(F)F)cc56)CC4)ccc32)cc1 [Compound 1010] | –
33 | 20 to 1000 | C#CCOc1cc(CCn2c(C#N)cc3c(C)c(CN4CCC(Nc5ncnc6sc(CC(F)(F)F)cc56)CC4)ccc32)ccc1NC(=O)C=C [Compound 1011] | –
34 | > 1000 | C=CC(=O)Nc1ccc(CCn2c(C#N)cc3c(C)c(CN4CCC(Nc5ncnc6sc(CC(F)(F)F)cc56)CC4)ccc32)cc1OCc1cn(CCOCCOCCOCCNC(=O)CCCC[C@H]2SC[C@H]3NC(=O)N[C@H]32)nn1 [Compound 1012] | –
35 | 50 to 250 | C/C=C(\C#N)C(=O)Nc1ccc(CCn2c(C#N)cc3c(C)c(CN4CCC(Nc5ncnc6sc(CC(F)(F)F)cc56)CC4)ccc32)cc1 [Compound 1013] | –
36 | < 50 | CNc1nc(NC2CCN(Cc3ccc4c(cc(C#N)n4CCN4CCC(S(C)(=O)=O)CC4)c3C)CC2)c2cc(CC(F)(F)F)sc2n1 [Compound 1020] | –
37 | < 50 | Cc1nc(NC2CCN(Cc3ccc4c(cc(C#N)n4CCN4CCC(S(C)(=O)=O)CC4)c3C)CC2)c2cc(CC(F)(F)F)sc2n1 [Compound 1021] | –
38 | < 50 | CNc1nc(NC2CCN(Cc3ccc4c(cc(C#N)n4CCN4CCN(S(C)(=O)=O)CC4)c3C)CC2)c2cc(CC(F)(F)F)sc2n1 [Compound 1022] | –
39 | 50 to 250 | Cc1nc(NC2CCN(Cc3ccc4c(cc(C#N)n4CCN4CCN(S(C)(=O)=O)CC4)c3C)CC2)c2cc(CC(F)(F)F)sc2n1 [Compound 1023] | –
40 | < 50 | CNc1nc(NC2CCN(Cc3ccc4c(cc(C#N)n4CCN4CCN(C)C(=O)C4)c3C)CC2)c2cc(CC(F)(F)F)sc2n1 [Compound 1024] | –
41 | < 50 | CNc1nc(NC2CCN(Cc3ccc4c(cc(C#N)n4CCN4CCNC(=O)C4)c3C)CC2)c2cc(CC(F)(F)F)sc2n1 [Compound 1025] | –
42 | < 50 | Cc1c(CN2CCC(Nc3ncnc4sc(CC(F)(F)F)cc34)CC2)ccc2c1cc(C#N)n2CCNC(=O)COCCOCCNC(=O)OC(C)(C)C [Compound 1027] | –
